Results: patent US20240344145A1, “PHARMACOGENOMICS SCORE TO MAKE DECISIONS ON THERAPY AUGMENTATION IN AML” (University of Florida Research Foundation, Incorporated, priority 2021, published 2024)

System: ara-C metabolic pathway genes
Assay: Association of ara-C pathway SNP genotypes with MRD1, EFS and OS in AML02 (logistic regression and Cox models; also within LDAC and HDAC arms)
Set-up: species or system human
Conditions: within arm of AML02
Text: Genomic DNA from patients enrolled in the multi-site St. Jude AML02 trial was genotyped for 155 SNPs in 16 genes of relevance to ara-C pharmacology using sequenom iPlex platform that uses MALDI-TOF based chemistry at University of Minnesota, Biomedical Genomics Center. SNPs were selected based on previously reported studies. For SNPs lacking literature on genetic variation, SNPs were selected to capture LD blocks (European and African ancestry) on a gene. Of 155 SNPs, 1 SNP was excluded due to low call rate (<90%), 47 SNPs were excluded due to minimum allele frequency of less than 5%, 11 SNPs were excluded due to high LD (r^2>0.9) with other SNPs; two SNPs were excluded because of deviation from Hardy-Weinberg equilibrium. Genotype for the COG-AAML0531 cohort for the selected SNPs was obtained using sequenom platform or TaqMan genotyping assays, and for a few SNPs was extracted from the data available on Illumina 2.5 Omni array. Genotype calls from multiple platforms were confirmed across multiple samples randomly collected from the cohort.
SNP genotype groups in three different modes of inheritance (additive, dominant, and recessive) were tested for association with MRD1 using logistic regression models. Odds ratio (OR) and 95% confidence interval (CI) were calculated for each test. SNPs with association P-value<0.05 were considered significant. Cox-proportional hazard models were used to evaluate association of genotype groups with EFS or OS. Hazard ratio (HR) and 95% CI were calculated for each test. p-value<0.05 was considered statistically significant. Given initial risk group assignments are well-established prognostic factors associated with outcome, outcome association analysis of SNPs with and without adjusting for risk group was also performed to identify SNPs that are associated with outcome independent of risk group.
SNPs with p<0.15 in risk-adjusted univariate evaluation with clinical endpoints (MRD1, EFS, and OS) were tested for all possible combinations with a maximum of three SNPs per model in multivariable logistic regression models for association with MRD1 and Cox-proportional hazard models for association with EFS and OS. Analysis for up to 3 SNP combinations was restricted due to computational challenges as increasing the maximum number of SNPs per model drastically increases the number of models as 1000 permutations were run for each model. Models were ordered according to their Bayesian Information Criterion (BIC) and weight in favor of each model. One thousand permutation tests were performed for each model to determine statistical significance. The six unique SNPs from the most significant models for EFS and MRD1 were included in the development of the ACS10 score as described in the results section.
The multicenter AML02 clinical trial randomly assigned subjects to receive low dose ara-C (LDAC: 100 mg/m^2; n=91 patients) or high dose ara-C(HDAC: 3 g/m^2; n=75 patients) in combination with daunorubicin and etoposide as the first course of chemotherapy as described above in patient cohort section. Thus, the association of SNPs with outcome within each arm separately was also explored (Table 5).

[1] = rs4917384 (NT5C2, WT C, VAR T), MOI D
[2] = rs4980345 (SLC28A1, WT G, VAR A), MOI A
[3] = rs6552622 (DCTD, WT C, VAR G), MOI D
[4] = rs6742272 (RRM2, WT C, VAR G), MOI A
[5] = rs6834938 (DCTD, WT C, VAR T), MOI R
[6] = rs6946062 (NT5C3, WT T, VAR C), MOI D
[7] = rs7533657 (CTPS1, WT C, VAR T), MOI R
[8] = rs7543016 (CMPK1, WT C, VAR G), MOI R
[9] = rs7776847 (NT5C3, WT G, VAR A), MOI A
[10] = rs7874528 (SLC28A3, WT G, VAR T), MOI D
[11] = rs10252880 (NT5C3, WT G, VAR C), MOI A
[12] = rs10767827 (RRM1, WT G, VAR T), MOI D
[13] = rs10786736 (NT5C2, WT G, VAR C), MOI D
[14] = rs10916819 (CDA, WT A, VAR G), MOI D
[15] = rs11140525 (SLC28A3, WT G, VAR A), MOI A
[16] = rs11191558 (NT5C2, WT G, VAR A), MOI D
[17] = rs11737887 (DCTD, WT T, VAR C), MOI A
[18] = rs12554292 (SLC28A3, WT C, VAR T), MOI D
[19] = rs12806698 (RRM1, WT C, VAR A), MOI D
[20] = rs17103168 (CMPK1, WT A, VAR G), MOI D

SMILES: Nc1ccn([C@@H]2O[C@H](CO)[C@@H](O)[C@@H]2O)c(=O)n1 [HDAC, cytarabine]
- EFS HR (95% CI) [1]: 0.74 (0.51-1.08)
- MRD1 OR (95% CI) [1]: 0.73 (0.44-1.2)
- OS HR (95% CI) [1]: 0.61 (0.38-0.98)
- EFS HR (95% CI) [2]: 0.94 (0.47-1.87)
- MRD1 OR (95% CI) [2]: 0.55 (0.19-1.62)
- OS HR (95% CI) [2]: 1.3 (0.64-2.64)
- EFS HR (95% CI) [3]: 1.71 (1.15-2.53)
- MRD1 OR (95% CI) [3]: 1.06 (0.56-1.99)
- OS HR (95% CI) [3]: 1.84 (1.19-2.85)
- EFS HR (95% CI) [4]: 1.09 (0.68-1.76)
- MRD1 OR (95% CI) [4]: 0.86 (0.44-1.68)
- OS HR (95% CI) [4]: 1.09 (0.62-1.92)
- EFS HR (95% CI) [5]: 0.7 (0.34-1.44)
- MRD1 OR (95% CI) [5]: 1.08 (0.49-2.38)
- OS HR (95% CI) [5]: 0.86 (0.42-1.79)
- EFS HR (95% CI) [6]: 1.13 (0.78-1.63)
- MRD1 OR (95% CI) [6]: 0.96 (0.59-1.56)
- OS HR (95% CI) [6]: 1.47 (0.92-2.35)
- EFS HR (95% CI) [7]: 1.76 (1.14-2.7)
- MRD1 OR (95% CI) [7]: 1.31 (0.67-2.57)
- OS HR (95% CI) [7]: 1.97 (1.22-3.18)
- EFS HR (95% CI) [8]: 0.69 (0.38-1.25)
- MRD1 OR (95% CI) [8]: 1.29 (0.69-2.42)
- OS HR (95% CI) [8]: 0.65 (0.32-1.35)
- EFS HR (95% CI) [9]: 0.83 (0.46-1.5)
- MRD1 OR (95% CI) [9]: 1.23 (0.57-2.65)
- OS HR (95% CI) [9]: 0.71 (0.34-1.47)
- EFS HR (95% CI) [10]: 1.24 (0.85-1.81)
- MRD1 OR (95% CI) [10]: 0.91 (0.52-1.61)
- OS HR (95% CI) [10]: 1.41 (0.91-2.17)
- EFS HR (95% CI) [11]: 0.99 (0.62-1.57)
- MRD1 OR (95% CI) [11]: 1.18 (0.62-2.27)
- OS HR (95% CI) [11]: 0.74 (0.42-1.32)
- EFS HR (95% CI) [12]: 1.03 (0.71-1.49)
- MRD1 OR (95% CI) [12]: 0.55 (0.31-0.97)
- OS HR (95% CI) [12]: 1.04 (0.68-1.61)
- EFS HR (95% CI) [13]: 0.92 (0.6-1.4)
- MRD1 OR (95% CI) [13]: 0.9 (0.51-1.59)
- OS HR (95% CI) [13]: 0.92 (0.56-1.52)
- EFS HR (95% CI) [14]: 1.08 (0.75-1.56)
- MRD1 OR (95% CI) [14]: 1.87 (1.09-3.21)
- OS HR (95% CI) [14]: 1.33 (0.83-2.12)
- EFS HR (95% CI) [15]: 0.73 (0.44-1.21)
- MRD1 OR (95% CI) [15]: 0.44 (0.21-0.94)
- OS HR (95% CI) [15]: 0.87 (0.49-1.56)
- EFS HR (95% CI) [16]: 0.87 (0.56-1.37)
- MRD1 OR (95% CI) [16]: 0.93 (0.53-1.66)
- OS HR (95% CI) [16]: 0.84 (0.48-1.44)
- EFS HR (95% CI) [17]: 0.96 (0.49-1.89)
- MRD1 OR (95% CI) [17]: 2.74 (1.06-7.06)
- OS HR (95% CI) [17]: 0.95 (0.43-2.12)
- EFS HR (95% CI) [18]: 1.15 (0.75-1.76)
- MRD1 OR (95% CI) [18]: 1.92 (1.04-3.56)
- OS HR (95% CI) [18]: 1.4 (0.87-2.24)
- EFS HR (95% CI) [19]: 0.64 (0.43-0.96)
- MRD1 OR (95% CI) [19]: 0.89 (0.54-1.45)
- OS HR (95% CI) [19]: 0.62 (0.37-1.02)
- EFS HR (95% CI) [20]: 1.05 (0.73-1.51)
- MRD1 OR (95% CI) [20]: 0.62 (0.37-1.04)
- OS HR (95% CI) [20]: 0.9 (0.58-1.41)
